Results published in PubChem BioAssay AID1963972 (Molecular Pharmacology Branch, DTP, NCI, 2024).

Test system: 945468-187-T-J2-PDC spheroids viability
Assay: Anticancer human tumor 945468-187-T-J2-PDC patient-derived rectal carcinoma cell line growth inhibition [PI3K]
Details: spheroids with HUVEC and MSC; for IC50: curve of first compound; for viability, T/C: stronger effect = lower value
Excerpt: Combinatorial screen of targeted agents with the PI3K inhibitors inavolisib, alpelisib, duvelisib, and copanlisib in multi-cell type tumor spheroids
A high-throughput screen of multi-cell type tumor spheroids was designed to identify active combinations of targeted small molecules and PI3K pathway inhibitors. Complex spheroids include a stromal component modeled by human endothelial cells (HUVEC) and fibroblasts modeled by human mesenchymal stem cells (MSCs). The concentration ranges selected for each drug and investigational agent were based upon clinically achievable concentrations if the clinical Cmax of the agent was known.
Compounds. The drugs and investigational agents: inavolisib (NSC800729), alpelisib (NSC765974), duvelisib (NSC772469), copanlisib (NSC816437), ipatasertib (NSC767898), afuresertib (NSC778305), talazoparib (NSC767125), sapanisertib (NSC764658), selumetinib (NSC741078), tovorafenib (DAY101, NSC766906), vemurafenib (NSC761431), ravoxertinib (NSC781343), sotorasib (NSC818433), MRTX1133 (NSC 836407), abemaciclib (NSC 768073), palbociclib (NSC758247), venetoclax (NSC 766270), SY5609 (NSC837396), enzalutamide (NSC755605), and darolutamide (NSC825331), were obtained from the National Cancer Institute (NCI) Developmental Therapeutics Program Chemical Repository. The FDA-approved anticancer drug set is available from the NCI Developmental Therapeutics Program. […] The stock solutions were prepared in dimethyl sulfoxide (DMSO, Sigma-Aldrich, St. Louis, MO, cat. D2650) at 800-fold the tested concentration and stored at -70 degrees C prior to their use. All drugs and investigational agents were tested over a range starting from a high concentration at or near the clinical Cmax and decreasing in half-log increments. If the clinical Cmax for an agent had not been determined, the highest concentration tested was 10 microM.
Cell Culture. All cells were maintained in an incubator at 37 degrees C and 5% CO2 with 95% humidity. The PDC lines were cultured according to standard operating procedures established by the NCI PDMR (https://pdmr.cancer.gov/sops/default.htm). All PDCs were thawed and cultured in Matrigel-coated flasks prepared with a working solution of 1X Ham's F-12 nutrient mix, without supplementation (Invitrogen, Waltham, MA, cat. 11765054), 100 U/mL penicillin-streptomycin (Invitrogen, cat. 15140122), and 2.5% Matrigel (Corning Inc., Corning, NY, cat. 354248) for the first three passages. The 354836-022-R-J1-PDC, 475296-252-R-J1-PDC, and 997726-040-R-J2-PDC lines were cultured in 6A media, which includes advanced DMEM/F-12 (Thermo Fisher Scientific, cat. 12634028), 10 mM HEPES (Thermo Fisher Scientific, cat. 15630080), 1X GlutaMAX supplement (Thermo Fisher Scientific, cat. 35050061), 0.1 mg/mL primocin (InvivoGen, San Diego, CA, cat. ant-pm-2), 10% defined fetal bovine serum, heat inactivated (HyClone Laboratories Inc., Logan, UT, cat. SH30070.03HI), 50% L-WRN conditioned media (ATCC, cat. CRL-3276), 1.25 mM N-Acetyl-L-cysteine (Sigma-Aldrich, cat. A9165), 10 mM nicotinamide (Sigma-Aldrich, cat. N0636), 1X B-27 supplement (Thermo Fisher Scientific, cat. 17504044), 1X N-2 supplement (Thermo Fisher Scientific, cat. 17502048), and 10 microM Y-27632 dihydrochloride (Tocris Bioscience, Bristol, United Kingdom, cat. 1254). The 624824-186-R-J2-PDC line was cultured in 6C/Colon 1B media, which includes all 6A media components plus 50 ng/mL human EGF recombinant protein (Thermo Fisher Scientific, cat. PHG0311). […]
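Also: spheroids exposed to compounds for seven days before reading.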

CC(=O)c1c(C)c2cnc(Nc3ccc(N4CCNCC4)cn3)nc2n(C2CCCC2)c1=O + CC(Nc1ccc2c(c1)OCCn1cc(N3C(=O)OCC3C(F)F)nc1-2)C(N)=O
IC50 (second compound 0.00316 µM): > 0.1 µM | IC50 (second compound 0.01 µM): > 0.1 µM | IC50 (second compound 0.0316 µM): > 0.1 µM | IC50 (second compound 0.1 µM): > 0.1 µM | IC50 (second compound 0.316 µM): > 0.1 µM | IC50 (second compound 1 µM): > 0.1 µM | viability, T/C (second compound 0.00316 µM, first compound 0.000316 µM): 91.5% | viability, T/C (second compound 0.00316 µM, first compound 0.001 µM): 98.4% | viability, T/C (second compound 0.00316 µM, first compound 0.00316 µM): 73.9% | viability, T/C (second compound 0.00316 µM, first compound 0.01 µM): 114% | viability, T/C (second compound 0.00316 µM, first compound 0.0316 µM): 129% | viability, T/C (second compound 0.00316 µM, first compound 0.1 µM): 128% | viability, T/C (second compound 0.01 µM, first compound 0.000316 µM): 73.9% | viability, T/C (second compound 0.01 µM, first compound 0.001 µM): 109% | viability, T/C (second compound 0.01 µM, first compound 0.00316 µM): 127% | viability, T/C (second compound 0.01 µM, first compound 0.01 µM): 83.5% | viability, T/C (second compound 0.01 µM, first compound 0.0316 µM): 92.8% | viability, T/C (second compound 0.01 µM, first compound 0.1 µM): 114% | viability, T/C (second compound 0.0316 µM, first compound 0.000316 µM): 91% | viability, T/C (second compound 0.0316 µM, first compound 0.001 µM): 101% | viability, T/C (second compound 0.0316 µM, first compound 0.00316 µM): 101% | viability, T/C (second compound 0.0316 µM, first compound 0.01 µM): 87.3% | viability, T/C (second compound 0.0316 µM, first compound 0.0316 µM): 86.2% | viability, T/C (second compound 0.0316 µM, first compound 0.1 µM): 105% | viability, T/C (second compound 0.1 µM, first compound 0.000316 µM): 92.5% | viability, T/C (second compound 0.1 µM, first compound 0.001 µM): 144% | viability, T/C (second compound 0.1 µM, first compound 0.00316 µM): 84.2% | viability, T/C (second compound 0.1 µM, first compound 0.01 µM): 101% | viability, T/C (second compound 0.1 µM, first compound 0.0316 µM): 107% | viability, T/C (second compound 0.1 µM, first compound 0.1 µM): 100% | viability, T/C (second compound 0.316 µM, first compound 0.000316 µM): 81.3% | viability, T/C (second compound 0.316 µM, first compound 0.001 µM): 87% | viability, T/C (second compound 0.316 µM, first compound 0.00316 µM): 79% | viability, T/C (second compound 0.316 µM, first compound 0.01 µM): 78.1% | viability, T/C (second compound 0.316 µM, first compound 0.0316 µM): 85.3% | viability, T/C (second compound 0.316 µM, first compound 0.1 µM): 73.1% | viability, T/C (second compound 1 µM, first compound 0.000316 µM): 90.3% | viability, T/C (second compound 1 µM, first compound 0.001 µM): 74.5% | viability, T/C (second compound 1 µM, first compound 0.00316 µM): 70.8% | viability, T/C (second compound 1 µM, first compound 0.01 µM): 72% | viability, T/C (second compound 1 µM, first compound 0.0316 µM): 71.2% | viability, T/C (second compound 1 µM, first compound 0.1 µM): 81.4%
